{"source": "patent US20250041293A1", "about": "“AN IGF1R INHIBITOR AND AN AKT INHIBITOR FOR USE IN THE TREATMENT OF CANCER” (Genome Research Limited, priority 2022, published 2025)", "key": {"[1]": {"target": "ABL T3151 (Homo sapiens, UniProt P00519, T315I)", "settings": "cell-free assays; cited from earlier work"}, "[2]": {"settings": "weekly 1-hr IV infusions; patients with solid tumours or multiple myeloma; cited from earlier work"}, "[3]": {"target": "LYN (Homo sapiens, UniProt P07948)", "sequence (P07948 whole entry)": "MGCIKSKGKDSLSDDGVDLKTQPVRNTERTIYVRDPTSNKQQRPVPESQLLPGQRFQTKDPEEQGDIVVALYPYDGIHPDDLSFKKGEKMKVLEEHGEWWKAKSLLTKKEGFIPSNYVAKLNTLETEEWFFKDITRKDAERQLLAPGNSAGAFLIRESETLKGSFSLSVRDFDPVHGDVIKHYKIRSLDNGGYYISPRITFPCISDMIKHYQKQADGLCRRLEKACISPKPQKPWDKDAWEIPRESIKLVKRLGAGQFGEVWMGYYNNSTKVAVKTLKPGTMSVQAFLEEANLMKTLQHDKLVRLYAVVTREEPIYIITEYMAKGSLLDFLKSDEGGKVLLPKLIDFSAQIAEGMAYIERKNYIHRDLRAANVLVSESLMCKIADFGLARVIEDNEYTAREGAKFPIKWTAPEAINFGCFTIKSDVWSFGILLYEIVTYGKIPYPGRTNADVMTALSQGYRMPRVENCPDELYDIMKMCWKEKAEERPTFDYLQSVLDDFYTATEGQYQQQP", "settings": "cell-free assays; cited from earlier work"}, "[4]": {"target": "SRC (Homo sapiens, UniProt P12931)", "sequence (P12931 whole entry)": "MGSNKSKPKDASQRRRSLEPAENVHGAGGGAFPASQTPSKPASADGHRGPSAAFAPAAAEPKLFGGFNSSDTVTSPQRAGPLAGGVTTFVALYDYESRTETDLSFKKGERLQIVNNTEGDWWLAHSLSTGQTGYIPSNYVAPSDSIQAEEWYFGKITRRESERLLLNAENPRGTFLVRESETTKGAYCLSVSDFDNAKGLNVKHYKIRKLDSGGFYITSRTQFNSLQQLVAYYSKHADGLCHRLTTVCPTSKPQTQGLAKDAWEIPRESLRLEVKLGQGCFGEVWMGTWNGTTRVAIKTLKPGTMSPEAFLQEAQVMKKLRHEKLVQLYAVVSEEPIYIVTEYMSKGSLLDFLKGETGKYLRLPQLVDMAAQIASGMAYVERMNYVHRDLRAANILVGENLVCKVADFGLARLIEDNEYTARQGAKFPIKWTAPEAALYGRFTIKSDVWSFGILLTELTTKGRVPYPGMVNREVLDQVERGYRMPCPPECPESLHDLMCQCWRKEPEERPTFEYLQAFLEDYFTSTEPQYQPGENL", "settings": "cell-free assays; cited from earlier work"}, "[5]": {"target": "Akt3 (Homo sapiens, UniProt Q9Y243)", "sequence (Q9Y243 whole entry)": "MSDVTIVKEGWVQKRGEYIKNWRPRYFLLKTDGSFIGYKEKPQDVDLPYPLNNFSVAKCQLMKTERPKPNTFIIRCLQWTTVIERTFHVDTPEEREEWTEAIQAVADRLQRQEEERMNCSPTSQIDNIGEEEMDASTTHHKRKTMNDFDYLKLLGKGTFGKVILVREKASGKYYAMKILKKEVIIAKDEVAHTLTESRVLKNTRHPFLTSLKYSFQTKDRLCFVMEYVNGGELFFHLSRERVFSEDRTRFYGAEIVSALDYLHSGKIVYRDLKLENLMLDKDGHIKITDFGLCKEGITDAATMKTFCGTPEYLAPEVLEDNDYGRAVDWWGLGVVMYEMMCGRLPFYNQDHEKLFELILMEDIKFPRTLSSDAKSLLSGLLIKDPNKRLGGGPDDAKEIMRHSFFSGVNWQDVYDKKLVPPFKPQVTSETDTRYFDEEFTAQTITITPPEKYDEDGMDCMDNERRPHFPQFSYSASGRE", "settings": "assay format not stated; cited from earlier work"}, "[6]": {"target": "Akt1 (Homo sapiens, UniProt P31749)", "sequence (P31749 whole entry)": "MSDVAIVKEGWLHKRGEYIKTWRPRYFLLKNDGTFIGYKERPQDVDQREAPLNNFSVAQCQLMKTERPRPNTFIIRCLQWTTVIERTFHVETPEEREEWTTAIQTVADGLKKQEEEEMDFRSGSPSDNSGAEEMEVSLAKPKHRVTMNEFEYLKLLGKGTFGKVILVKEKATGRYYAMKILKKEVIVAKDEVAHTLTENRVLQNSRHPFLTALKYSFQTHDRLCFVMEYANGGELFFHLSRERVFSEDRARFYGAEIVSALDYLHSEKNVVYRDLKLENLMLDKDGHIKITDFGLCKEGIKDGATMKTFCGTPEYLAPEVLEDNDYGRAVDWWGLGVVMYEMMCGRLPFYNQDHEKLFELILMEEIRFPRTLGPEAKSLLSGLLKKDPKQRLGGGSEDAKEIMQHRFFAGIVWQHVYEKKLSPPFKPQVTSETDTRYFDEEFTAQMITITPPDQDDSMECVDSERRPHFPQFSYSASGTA", "settings": "cited from earlier work"}, "[7]": {"target": "Akt2 (Homo sapiens, UniProt P31751)", "settings": "assay format not stated; cited from earlier work"}, "[8]": {"settings": "phase I, patients with multiple myeloma; cited from earlier work"}, "[9]": {"target": "IR (Homo sapiens, UniProt P06213)", "sequence (P06213 28-1382)": "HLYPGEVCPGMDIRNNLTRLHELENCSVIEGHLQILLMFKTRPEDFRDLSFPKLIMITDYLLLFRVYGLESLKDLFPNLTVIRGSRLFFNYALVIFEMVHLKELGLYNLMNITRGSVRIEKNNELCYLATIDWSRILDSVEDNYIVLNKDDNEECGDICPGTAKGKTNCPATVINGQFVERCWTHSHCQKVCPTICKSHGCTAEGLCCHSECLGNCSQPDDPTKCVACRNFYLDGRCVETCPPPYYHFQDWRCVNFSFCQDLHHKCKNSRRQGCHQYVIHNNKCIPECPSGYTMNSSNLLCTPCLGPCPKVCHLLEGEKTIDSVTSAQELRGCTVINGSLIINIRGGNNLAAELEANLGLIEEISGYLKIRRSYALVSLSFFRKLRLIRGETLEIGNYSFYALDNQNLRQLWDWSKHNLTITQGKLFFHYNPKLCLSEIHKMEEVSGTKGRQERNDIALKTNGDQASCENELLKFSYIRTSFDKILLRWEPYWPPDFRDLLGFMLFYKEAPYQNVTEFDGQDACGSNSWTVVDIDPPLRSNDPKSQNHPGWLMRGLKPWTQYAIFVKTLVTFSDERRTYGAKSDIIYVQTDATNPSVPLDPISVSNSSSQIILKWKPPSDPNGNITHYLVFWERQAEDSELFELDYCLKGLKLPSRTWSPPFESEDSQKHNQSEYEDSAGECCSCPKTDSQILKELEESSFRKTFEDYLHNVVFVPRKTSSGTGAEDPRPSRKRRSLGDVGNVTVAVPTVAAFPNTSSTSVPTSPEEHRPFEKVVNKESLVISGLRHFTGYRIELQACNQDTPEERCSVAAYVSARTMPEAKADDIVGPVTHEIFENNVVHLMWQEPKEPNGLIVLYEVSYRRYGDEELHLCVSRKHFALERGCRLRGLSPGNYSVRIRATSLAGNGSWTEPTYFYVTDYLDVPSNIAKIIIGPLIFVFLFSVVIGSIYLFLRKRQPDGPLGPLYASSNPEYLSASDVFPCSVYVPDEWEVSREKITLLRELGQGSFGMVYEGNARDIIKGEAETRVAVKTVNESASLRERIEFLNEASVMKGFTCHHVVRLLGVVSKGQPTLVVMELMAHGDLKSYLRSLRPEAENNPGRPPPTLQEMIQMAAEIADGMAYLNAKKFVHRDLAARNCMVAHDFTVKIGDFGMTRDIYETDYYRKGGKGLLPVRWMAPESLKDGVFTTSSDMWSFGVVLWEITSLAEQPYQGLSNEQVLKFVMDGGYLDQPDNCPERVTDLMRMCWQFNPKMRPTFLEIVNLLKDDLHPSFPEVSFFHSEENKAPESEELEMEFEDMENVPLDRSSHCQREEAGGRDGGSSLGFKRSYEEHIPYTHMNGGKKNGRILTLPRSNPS", "settings": "cited from earlier work"}, "[10]": {"test_system": "FGF-R, PDGF-R, or EGF-R", "settings": "for example FGF-R; cited from earlier work"}, "[11]": {"test_system": "PKC", "settings": "cited from earlier work"}, "[12]": {"test_system": "colon cancer cell lines", "assay": "Anchored 2x7 combination viability screen (CellTiter-Glo, 72 h), colon cancer cell lines", "type": "cell-based", "settings": "in combination with MK-2206, colon; compared with Linsitinib+MK-2206", "procedure": "To screen efficiently we used a 2×7 concentration matrix, or “anchored” approach. We screened each anchor compound at two optimised concentrations and a discontinuous 1,000-fold (7-point) dose-response curve of the library compound. Viability was read out after 72 h of drug treatment using CellTiter-Glo and drug responses for single agent and combination responses were fitted. […] The combination was screened in both anchor and library orientations, the first named compound being the anchor compound."}, "[13]": {"test_system": "PKA", "settings": "cited from earlier work"}, "[14]": {"test_system": "Akt1/2, Aurora A/B,B-Raf, CDK2, and EGFR", "settings": "cited from earlier work"}, "[15]": {"test_system": "Mek", "settings": "cited from earlier work"}, "[16]": {"test_system": "MAPK1/2", "settings": "cited from earlier work"}, "[17]": {"target": "IGF1R (Homo sapiens, UniProt P08069)", "sequence (P08069 31-1367)": "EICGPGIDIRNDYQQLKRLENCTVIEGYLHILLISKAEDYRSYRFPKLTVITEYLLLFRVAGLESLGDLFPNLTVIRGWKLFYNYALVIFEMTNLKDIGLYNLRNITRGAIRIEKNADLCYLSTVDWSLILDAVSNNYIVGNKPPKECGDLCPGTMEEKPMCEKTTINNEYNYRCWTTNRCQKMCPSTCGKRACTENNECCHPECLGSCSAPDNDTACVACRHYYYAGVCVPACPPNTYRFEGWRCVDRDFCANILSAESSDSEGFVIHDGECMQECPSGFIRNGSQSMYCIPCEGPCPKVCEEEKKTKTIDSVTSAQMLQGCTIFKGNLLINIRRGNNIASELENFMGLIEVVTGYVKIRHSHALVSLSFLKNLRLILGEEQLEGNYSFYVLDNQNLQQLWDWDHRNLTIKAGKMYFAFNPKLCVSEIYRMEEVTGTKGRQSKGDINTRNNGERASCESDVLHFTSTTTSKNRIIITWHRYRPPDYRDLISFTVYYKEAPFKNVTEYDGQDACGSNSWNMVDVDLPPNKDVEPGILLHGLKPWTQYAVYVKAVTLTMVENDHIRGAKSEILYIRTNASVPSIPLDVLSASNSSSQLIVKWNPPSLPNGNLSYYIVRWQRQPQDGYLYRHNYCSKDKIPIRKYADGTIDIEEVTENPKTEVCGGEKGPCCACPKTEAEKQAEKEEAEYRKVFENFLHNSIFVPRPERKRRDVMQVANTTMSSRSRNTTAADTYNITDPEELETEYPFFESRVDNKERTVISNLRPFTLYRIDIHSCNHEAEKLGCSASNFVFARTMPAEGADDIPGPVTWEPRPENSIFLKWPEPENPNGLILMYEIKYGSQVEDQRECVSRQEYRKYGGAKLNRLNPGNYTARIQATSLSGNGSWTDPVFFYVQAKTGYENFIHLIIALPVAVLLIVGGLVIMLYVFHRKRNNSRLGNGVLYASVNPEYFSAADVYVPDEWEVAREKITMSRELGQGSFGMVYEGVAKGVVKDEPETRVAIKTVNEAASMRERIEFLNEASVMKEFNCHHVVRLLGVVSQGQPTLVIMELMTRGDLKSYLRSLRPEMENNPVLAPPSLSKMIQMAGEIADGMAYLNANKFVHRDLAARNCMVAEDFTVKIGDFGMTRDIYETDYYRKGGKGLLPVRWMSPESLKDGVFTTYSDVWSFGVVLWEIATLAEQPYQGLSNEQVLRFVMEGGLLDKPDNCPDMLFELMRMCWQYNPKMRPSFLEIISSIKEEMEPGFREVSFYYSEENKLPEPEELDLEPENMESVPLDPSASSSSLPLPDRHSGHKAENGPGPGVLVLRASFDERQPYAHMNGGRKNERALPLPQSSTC", "settings": "assay format not stated; cited from earlier work"}, "[18]": {"target": "insulin receptor (IR) (Homo sapiens, UniProt P06213)", "sequence (P06213 28-1382)": "as the sequence (P06213 28-1382) above", "settings": "assay format not stated; cited from earlier work"}}, "note": "Like-named read-outs stand apart in the source and are kept apart here.", "data": [{"smiles": "CC(C)c1cc(CNc2nc(Nc3cc(C4CC4)[nH]n3)cc(N3CCN(C)CC3)n2)on1", "note": "[XL228, N4-(5-cyclopropyl-1H-pyrazol-3-yl)-N2-[(3-isopropylisoxazol-5-yl)methyl]-6-(4-methylpiperazin-1-yl)pyrimidine-2,4-diamine]", "values": [{"measurement": "IC50", "setting": "[1]", "value": 1.4, "unit": "nM"}, {"measurement": "maximum tolerated dose (MTD)", "setting": "[2]", "value": 6.5, "unit": "mg/kg"}, {"measurement": "IC50", "setting": "[3]", "value": 2, "unit": "nM"}, {"measurement": "IC50", "setting": "[4]", "value": 6.1, "unit": "nM"}]}, {"smiles": "C[C@]1(O)C[C@@](N)(c2ccc(-c3nc4n(c3-c3ccccc3)COc3ccncc3-4)cc2)C1", "note": "[TAS-117, 3-amino-1-methyl-3-[4-(5-phenyl-8-oxa-3,6,12-triazatricyclo[7.4.0.0^2,6]trideca-1(9),2,4,10,12-pentaen-4-yl)phenyl]cyclobutan-1-ol]", "values": [{"measurement": "IC50", "setting": "[5]", "value": 44, "unit": "nM"}, {"measurement": "IC50", "setting": "[6]; assay format not stated", "value": 4.8, "unit": "nM"}, {"measurement": "IC50", "setting": "[7]", "value": 1.6, "unit": "nM"}]}, {"smiles": "Cn1ncc(Cl)c1-c1cc(C(=O)N[C@H](CN)Cc2cccc(F)c2)sc1Cl", "note": "[Afuresertib, N-[(1S)-1-(aminomethyl)-2-(3-fluorophenyl)ethyl]-5-chloro-4-(4-chloro-2-methyl-pyrazol-3-yl)thiophene-2-carboxamide]", "values": [{"measurement": "maximum tolerated dose (MTD)", "setting": "[8]", "value": 125, "unit": "mg per day"}]}, {"smiles": "COc1cc([C@@H]2c3cc4c(cc3[C@H](O)[C@H]3COC(=O)[C@@H]23)OCO4)cc(OC)c1OC", "note": "[AXL-1717, (5R,5aR,8aS,9R)-5-hydroxy-9-(3,4,5-trimethoxyphenyl)-5a,6,8a,9-tetrahydro-5H-[2]benzofuro[5,6-f][1,3]benzodioxol-8-one]", "values": [{"measurement": "inhibition of tyrosine phosphorylation of the IR (in words)", "setting": "[9]", "value": "does not co-inhibit"}, {"measurement": "inhibition of tyrosine phosphorylation of a selected panel of receptors less related to IGF-IR (in words)", "setting": "[10]", "value": "does not co-inhibit"}]}, {"smiles": "C[C@@]1(C(=O)Nc2ccc(F)nc2)CCCN1c1nc(Nc2cc(C3CC3)[nH]n2)c2cccn2n1", "note": "[BMS-754807, 1-[4-[(5-cyclopropyl-1H-pyrazol-3-yl)amino]pyrrolo[2,1-f][1,2,4]triazin-2-yl]-N-(6-fluoro-3-pyridyl)-2-methyl-pyrrolidine-2-carboxamide]", "values": [{"measurement": "activity to PKC (in words)", "setting": "[11]", "value": "little activity"}, {"measurement": "synergy and activity of the IGF1Ri combined with MK-2206 (in words)", "setting": "[12]", "value": "much lower"}, {"measurement": "activity to PKA (in words)", "setting": "[13]", "value": "little activity"}]}, {"smiles": "CCc1cc(Nc2nccc(-c3c(-c4ccc(OC)c(C(=O)Nc5c(F)cccc5F)c4)nc4ccccn34)n2)c(OC)cc1N1CCC(N2CCN(S(C)(=O)=O)CC2)CC1", "note": "[GSK1904529A, N-(2,6-difluorophenyl)-5-[3-[2-[5-ethyl-2-methoxy-4-[4-(4-methylsulfonylpiperazin-1-yl)-1-piperidyl]anilino]pyrimidin-4-yl]imidazo[1,2-a]pyridine-2-yl]-2-methoxy-benzamide]", "values": [{"measurement": "selectivity for IGF1R/IR than Akt1/2, Aurora A/B, B-Raf, CDK2, and EGFR", "setting": "[14]", "value": "> 100", "unit": "fold"}]}, {"smiles": "Cc1cc(N2CCOCC2)cc2[nH]c(-c3c(NC[C@@H](O)c4cccc(Cl)c4)cc[nH]c3=O)nc12", "note": "[BMS-536924]", "values": [{"measurement": "IC50", "setting": "[15]", "value": 182, "unit": "nM"}, {"measurement": "activity for Akt1 (in words)", "setting": "[6]", "value": "very little activity"}, {"measurement": "activity for MAPK1/2 (in words)", "setting": "[16]", "value": "very little activity"}]}, {"smiles": "Cc1ccsc1C(=O)Nc1cc(CN2CCN(C(=O)CO)CC2)ccc1/C=C/c1n[nH]c2ccccc12", "note": "[KW-2450]", "values": [{"measurement": "IC50", "setting": "[17]", "value": 7.39, "unit": "nM"}, {"measurement": "IC50", "setting": "[18]", "value": 5.64, "unit": "nM"}]}]}
